Series [1] deals with T1, P2X7 receptor (Homo sapiens, UniProt Q99572).
T1 construct: 200 μl of a suspension of THP-1 cells; endogenous in cells; host or cells: THP-1 cells
T1 sequence (Q99572 1-595): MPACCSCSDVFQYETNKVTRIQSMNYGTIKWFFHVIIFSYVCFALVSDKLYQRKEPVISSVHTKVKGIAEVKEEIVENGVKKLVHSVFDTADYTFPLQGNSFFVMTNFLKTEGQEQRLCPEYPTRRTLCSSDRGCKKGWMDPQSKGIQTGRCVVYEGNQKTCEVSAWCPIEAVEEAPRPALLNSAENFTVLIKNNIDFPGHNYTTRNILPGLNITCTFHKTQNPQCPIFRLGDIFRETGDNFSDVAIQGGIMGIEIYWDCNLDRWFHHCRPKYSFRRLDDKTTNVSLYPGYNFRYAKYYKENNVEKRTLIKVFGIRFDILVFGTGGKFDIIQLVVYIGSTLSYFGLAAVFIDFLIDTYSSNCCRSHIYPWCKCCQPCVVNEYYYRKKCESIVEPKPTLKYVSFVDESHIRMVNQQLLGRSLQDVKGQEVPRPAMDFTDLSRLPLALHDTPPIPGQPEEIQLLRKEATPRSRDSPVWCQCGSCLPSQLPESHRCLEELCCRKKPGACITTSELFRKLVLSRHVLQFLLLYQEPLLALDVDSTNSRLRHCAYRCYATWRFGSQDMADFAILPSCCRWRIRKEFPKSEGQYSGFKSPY
Nature of the series: P2X7 assay (bbATP-induced ethidium bromide fluorescence in THP-1 cells). The series is classed as cell-based. The text has this: Certain compounds such as benzoylbenzoyl adenosine triphosphate (bbATP) are known to be agonists of the P2X7 receptor, effecting the formation of pores in the plasma membrane (Drug Development Research (1996), 37(3), p. 126). Consequently, when the receptor is activated using bbATP in the presence of ethidium bromide (a fluorescent DNA probe), an increase in the fluorescence of intracellular DNA-bound ethidium bromide is observed. The increase in fluorescence can be used as a measure of P2X7 receptor activation and therefore to quantify the effect of a compound on the P2X7 receptor.
In this manner, the compound of the invention was tested for antagonist activity at the P2X7 receptor. Thus, the test was performed in 96-well flat bottomed microtitre plates, the wells being filled with 250 μl of test solution comprising 200 μl of a suspension of THP-1 cells (2.5×10^6 cells/ml) containing 10^−4M ethidium bromide, 25 μl of a high potassium buffer solution containing 10^−5M bbATP, and 25 μl of the high potassium buffer solution containing concentrations of test compound typically from 30 μM-0.001 μM. The plate was covered with a plastic sheet and incubated at 37° C. for one hour. The plate was then read in a Perkin-Elmer fluorescent plate reader, excitation 520 nm, emission 595 nm, slit widths: Ex 15 nm, Em 20 nm. […]

Series [2] relates to primary rat hepatocytes. Description: In vitro phospholipidosis protocol (DHPE-TRITC accumulation). Type of series: cell-based, Han Wistar rats. How it is done:
Assessment of a compounds potential to induce phospholipidosis was determined by an in vitro fluorescent assay which reports the accumulation of phospholipids in primary rat hepatocytes. Hepatocytes were isolated from Han Wistar rats by a 2-stage collagenase digest method. The hepatocytes were then plated on collagen coated 96-well plates in William's E medium. The cells were left to adhere for 1 hour then the media was replaced with a solution of 250 μg.ml^−1 collagen in Hepatozyme cell culture medium.
Cells were then cultured for 48 hours with the medium being changed at 24 hours. At 48 hours post isolation the medium was changed to Hepatozyme supplemented with the fluorescent phospholipid N-(6-tetramethylrhodaminethiocarbamoyl)-1,2-dihexadecanoyl-sn-glycero-3-phosphoethanolamine (DHPE-TRITC) (5 μg.ml^−1). At this time, test compounds were added to the hepatocytes at a range of concentrations in a serial dilution with a final concentration of 0.4% dimethylsulfoxide (used as solvent for test compounds).
The cells were incubated for a further 24 hours and then fixed by addition of a phosphate buffered saline (PBS) solution containing the nuclear stain Hoechst 33342 (final concentration 2 μM) and paraformaldehyde solution (final concentration 4%). The plates were kept at room temperature for 30 minutes then washed three times in PBS solution.
Images of the hepatocytes were then acquired using an automated microscope platform (GE In Cell Analyser 3000). Image analysis algorithms were then used to assess cell viability and the accumulation of the DHPE-TRITC label within viable hepatocytes. The quantified accumulation observed with test compounds was then normalised to a range of 0, representing the accumulation observed in cells exposed to vehicle only, and 1, representing cells exposed to 10 μM amiodarone. The maximum accumulation across the dose response of the test compound, where cell viability is >50%, is reported, as is the dose at which this maximum was observed. The lowest dose that caused >50% cell toxicity is also reported. […]

Series [3] is described as follows: Bioavailability - Rat PK. Type of series: in vivo, male Sprague Dawley rats. The conditions noted are these: male, Sprague Dawley, plasma, oral 5 mg/kg vs IV 3 mg/kg. As for the experimental part:
Pharmacokinetic parameters and concepts are used in DMPK to describe the fate of a compound in the body. The distribution and excretion of a compound are reflected in the plasma concentration-time profile. By appropriate dosing, sampling and analysis key as parameters (clearance, volume, half-life, bioavailability etc.) can be determined.
Test compounds were typically dosed intravenously to the right lateral tail vein of male Sprague Dawley rats at a dose level of 3 mg/kg (1 ml/kg) in DMA:water (40:60 v/v). Rats were dosed orally at a dose level of 5 mg/kg (2 ml/kg) in 0.5% hydroxypropylmethylcellulose (HPMC, w/v)/0.1% Tween 80 (v/v) in water). […]
To determine the plasma levels of test compound, 50 μl of methanol was added to 50 μl of each of the test samples, whilst 40 μl of methanol was added to the 50 μl aliquots of control plasma containing 10 μl spikes of authentic standard used to create a calibration line and QCs. […] The resultant supernatants were analysed by HPLC-MSMS after an appropriate, selective and sensitive method had been created by optimizing both cone voltage and collision energy.
Pharmacokinetic parameters were derived from concentration-time using non-compartmental analysis in WinNonLin®. Bioavailability was calculated using the following equation F=AUCPO*DoseIV/AUCIV*DosePO.

A short description of series [4]: Plasma protein binding (equilibrium dialysis). The series is classed as in vitro ADME. The conditions noted are these: pH 7.4; human plasma, 37° C., 5 μM compound; read-out: human plasma protein binding (% bound) (converted). As for the experimental part:
The extent of plasma protein binding was determined via equilibrium dialysis of a compound between human plasma and aqueous buffer at 37° C., and determination of the concentrations of compound in the plasma and buffer by HPLC-MS/MS.
Dialysis cells (molecular weight cut-off 5000) were prepared by rinsing with water followed by soaking in the dialysis buffer for a minimum of 1 hour. The dialysis buffer was isotonic buffered saline pH 7.4. Stock solutions of compound in dimethylsulfoxide were prepared at a concentration of 0.5 mM.
The stock DMSO solution of compound was added to the plasma at a ratio of 10 μl of DMSO to each ml of plasma. This gave a 1% DMSO in plasma solution with each compound at a concentration of 5 μM.
Dialysis cells were then prepared and one half of the cell filled with 750 μl of dialysis buffer and the other half of the cell with 750 μl of plasma solution of compound. […]
The samples were then analysed using HPLC-MS/MS. […]
The concentration of compound in the samples were determined using MassLynx version 4.1 software (produced by Waters/Micromass) that automatically calculated a calibration curve and interpolated the concentration of compound in the analytes. Plasma protein binding was determined from the measured concentration as the percentage of compound bound in plasma (% bound) using the following equation;
In general terms: In equilibrium dialysis only unbound substance equilibrates across the membrane.

For series [5], the target named is T2, ion channel subunit encoded by the human ether-a-go-go-related gene (hERG) (Homo sapiens, UniProt Q12809).
T2 construct: expressed in transfected cells; host or cells: HEK (human embryonic kidney) cells, membranes
Nature of the series: hERG binding protocol (radioligand competition, HEK cell membranes expressing hERG). The conditions noted are these: for P2X7:hERG Ratio: ratio of P2X7:hERG affinity. How it is done: (§1) The hERG assay was performed according to the procedure described in WO2005/037052. The affinity (pIC50) of compounds for the ion channel subunit encoded by the human ether-a-go-go-related gene (hERG) gene was determined by competition binding of radioligand 3,7-Bis[2-(4-nitro[3,5-^3H]phenyl)ethyl]-3,7-diazabicyclo[3.3.1]nonane to HEK (human embryonic kidney) cell membranes expressing hERG, in a filter wash format.
(§2) Membranes were incubated for 3 hours at room temperature with serial dilutions of the test compounds, radioligand 3,7-Bis[2-(4-nitro[3, 5-3H]phenyl)ethyl]-3,7-diazabicyclo[3.3.1]nonane at 1 nM final concentration, and assay buffer (10 mM HEPES, 130 mM NaCl, 5 mM KCl, 1 mM EGTA, 0.8 mM MgCl2, pH 7.4). The assay was conducted in a final volume of 200 μL, in the presence of 1% (v/v) dimethyl sulphoxide. Non-specific binding was determined by measuring the binding of 3,7-Bis[2-(4-nitro[3,5-^3H]phenyl)ethyl]-3,7-diazabicyclo[3.3.1]nonane in the presence of 10 μM astemizole. During this incubation GF/B filter plates were immersed in coating solution 0.3% (v/v) Polyethylenimine and 0.2% (w/v) BSA). Following incubation assay plates were harvested onto precoated GF/B filter plates using a Tomtec harvester.
(§3) The pIC50, defined as the negative logarithm of the concentration of compound required for 50% reduction in 3,7-Bis[2-(4-nitro[3,5-^3H]phenyl)ethyl]-3,7-diazabicyclo[3.3.1]nonane binding, was determined. A ‘less than’ FIGURE indicates <50% inhibition at the quoted concentration, this being the highest concentration tested.

Series [6] has as its target T3, hERG (Homo sapiens, UniProt Q12809).
T3 construct: expressed in transfected cells; host or cells: HEK (human embryonic kidney) cells, membranes
Described as above. The conditions noted are these: human, HEK cell membranes expressing hERG, pH 7.4; highest concentration tested. How it is done:
as §1, §2, §3
(In general: Block of hERG is tested as a sign of cardiac risk.)

Like-named read-outs stand apart in the source and are kept apart here.

T2 sequence (Q12809 whole entry): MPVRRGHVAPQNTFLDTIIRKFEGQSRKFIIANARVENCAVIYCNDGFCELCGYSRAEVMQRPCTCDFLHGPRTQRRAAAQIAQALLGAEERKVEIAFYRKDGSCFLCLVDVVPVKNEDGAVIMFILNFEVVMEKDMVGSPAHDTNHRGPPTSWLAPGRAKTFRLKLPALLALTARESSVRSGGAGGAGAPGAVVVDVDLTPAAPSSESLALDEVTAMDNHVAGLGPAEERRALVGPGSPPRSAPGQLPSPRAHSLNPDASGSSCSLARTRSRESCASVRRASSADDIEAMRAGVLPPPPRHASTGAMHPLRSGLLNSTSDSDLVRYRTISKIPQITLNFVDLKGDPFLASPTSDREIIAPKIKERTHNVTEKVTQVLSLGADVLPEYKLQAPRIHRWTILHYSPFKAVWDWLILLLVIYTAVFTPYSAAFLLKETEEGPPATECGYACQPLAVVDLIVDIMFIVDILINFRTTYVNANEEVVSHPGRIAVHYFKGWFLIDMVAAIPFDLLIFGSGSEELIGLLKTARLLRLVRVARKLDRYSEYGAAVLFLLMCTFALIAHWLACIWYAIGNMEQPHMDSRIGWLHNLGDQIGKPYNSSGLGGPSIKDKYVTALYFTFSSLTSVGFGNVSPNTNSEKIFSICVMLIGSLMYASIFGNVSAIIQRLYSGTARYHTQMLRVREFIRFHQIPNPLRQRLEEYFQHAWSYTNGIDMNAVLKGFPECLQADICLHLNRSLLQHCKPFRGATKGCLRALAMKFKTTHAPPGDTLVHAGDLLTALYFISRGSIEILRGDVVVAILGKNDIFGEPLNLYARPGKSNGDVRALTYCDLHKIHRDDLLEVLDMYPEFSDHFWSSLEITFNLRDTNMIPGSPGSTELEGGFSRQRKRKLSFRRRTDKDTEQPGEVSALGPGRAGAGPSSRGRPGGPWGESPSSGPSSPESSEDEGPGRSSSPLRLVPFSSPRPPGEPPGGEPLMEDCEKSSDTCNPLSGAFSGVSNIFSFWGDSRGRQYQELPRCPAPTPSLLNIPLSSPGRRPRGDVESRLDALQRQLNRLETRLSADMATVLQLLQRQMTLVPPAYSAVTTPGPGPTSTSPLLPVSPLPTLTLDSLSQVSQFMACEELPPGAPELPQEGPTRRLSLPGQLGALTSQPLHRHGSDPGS
T3 sequence (Q12809 whole entry): as above

One may read the melting point as the temperature of the solid-liquid transition. By bioavailability is commonly meant the share of a dose that reaches the circulation, judged against a reference dose that is usually intravenous. Higher therefore signals much systemic uptake. A word on the inhibition: it is the change of the read-out against control, counted positive when it falls. A higher inhibition goes with strong suppression. The molecule `O=C(NCC1(O)CCCCCC1)c1c(Cl)ccc2nc(N3CC[C@H](NCCO)C3)ccc12` [Example 1, 6-Chloro-N-[(1-hydroxycycloheptyl)methyl]-2-{(3S)-3-[(2-hydroxyethyl)amino]-pyrrolidin-1-yl}quinoline-5-carboxamide] had a melting point of 138 to 140 °C. In addition, the IC50 in series [1] (10^-5M bbATP, antagonist activity, read-out: P2X7 pIC50 (converted)) is 3.98 nM. In series [1] (bbATP, read-out: P2X7 IC50), the IC50 was ≤ 5 nM. The molecule also showed a maximum accumulation concentration in series [2] (dose at which maximum accumulation was observed) of 71 µM. For the same molecule, in series [2] (lowest dose that caused >50% cell toxicity), the minimum toxic concentration is 198 µM. In series [2] (relative to 10 μM amiodarone control (=1), vehicle = 0, cell viability >50%), the “maximum accumulation (phospholipidosis)” value is 0.9. This molecule also returned a bioavailability in series [3] of 14%. In addition, the fraction unbound at 5 µM in series [4] was 0.3. Moreover, in series [5] (radioligand competition binding), the IC50 was > 100000 nM. In addition, the “P2X7:hERG Ratio” value in series [5] is on record as >20,000. The “P2X7:hERG Ratio” value in series [5] (listed as compound according to the present invention) is listed as > 20,000. Further, the inhibition at 3 h in series [6] is < 50%.

For the origin of these results see patent US8106073B2, “Quinoline derivatives 057” (AstraZeneca AB, priority 2007, dated 2012).
